The source of these data is patent publication US8901118B2, “Compounds and methods for kinase modulation, and indications therefor” (Plexxikon Inc., priority 2010, dated 2014).

Some results are limits rather than exact numbers.

One assay concerns the target CYP2C19 (Homo sapiens, UniProt P33261). The assay can be described thus: CYP2C19 inhibition (fluorescent substrate CEC). In kind it is in vitro ADME. As to conditions: read-out: Cyp IC50 2C19. A digest of the protocol: (§1)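 Inhibition is measured as the drop in fluorescent metabolite formation across a 10-point compound titration with NADPH regeneration at 37 °C. Incubation lasts 15 min for CYP1A2, 45 min for CYP2C9 and 30 min for CYP2C19 and CYP2D6.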

The target of another assay is T1, BCR-NTRK3 BaF3 cells (Homo sapiens, UniProt Q16288).
T1 construct: fused on or other part: P11274 (Breakpoint cluster region protein)
T1 sequence (Q16288 whole entry, the tested form may be a part): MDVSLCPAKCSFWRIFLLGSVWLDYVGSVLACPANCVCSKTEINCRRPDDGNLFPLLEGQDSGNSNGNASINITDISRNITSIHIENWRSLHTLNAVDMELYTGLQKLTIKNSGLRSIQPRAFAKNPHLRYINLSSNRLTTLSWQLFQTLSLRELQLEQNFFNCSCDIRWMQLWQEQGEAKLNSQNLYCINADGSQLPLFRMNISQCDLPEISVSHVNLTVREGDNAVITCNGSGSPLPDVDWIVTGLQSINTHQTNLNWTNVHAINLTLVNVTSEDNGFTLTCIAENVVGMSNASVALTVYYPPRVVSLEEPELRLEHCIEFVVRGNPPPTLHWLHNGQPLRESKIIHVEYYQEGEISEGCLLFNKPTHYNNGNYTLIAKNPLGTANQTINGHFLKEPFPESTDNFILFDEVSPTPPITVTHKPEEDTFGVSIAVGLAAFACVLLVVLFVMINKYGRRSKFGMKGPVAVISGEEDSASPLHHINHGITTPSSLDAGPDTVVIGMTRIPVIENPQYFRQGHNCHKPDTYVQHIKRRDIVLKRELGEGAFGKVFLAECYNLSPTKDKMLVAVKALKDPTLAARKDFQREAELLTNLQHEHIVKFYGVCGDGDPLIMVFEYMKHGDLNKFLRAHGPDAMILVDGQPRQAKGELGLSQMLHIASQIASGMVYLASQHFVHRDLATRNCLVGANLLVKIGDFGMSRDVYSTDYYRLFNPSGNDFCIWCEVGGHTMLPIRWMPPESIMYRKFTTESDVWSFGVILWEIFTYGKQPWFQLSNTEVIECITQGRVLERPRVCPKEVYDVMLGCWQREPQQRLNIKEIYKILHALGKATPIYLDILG
The assay can be described thus: BaF3 BCR-NTRK3 cell proliferation assay (ATPlite). In kind it is cell-based. As to conditions: read-out: Inhibition of Cell Proliferation IC50, BCR/BaF3 TrkC. The procedure, abridged:
(§2)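 BaF3 cells expressing BCR fusions were plated at 10,000 cells/well without IL-3, and MV-4-11 cells at 25,000 cells/well. Cells were treated the next day with an 8-point 1:3 dilution series (top 10 μM final) and incubated 3 days at 37 °C. ATPlite luminescence gave cell number, from which IC50 was fitted.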
Background: In ATP-based viability assays light output follows the ATP content of the culture.

The target of the next assay is T2, CYP1A2 (Homo sapiens, UniProt P05177).
T2 sequence (P05177 1-516): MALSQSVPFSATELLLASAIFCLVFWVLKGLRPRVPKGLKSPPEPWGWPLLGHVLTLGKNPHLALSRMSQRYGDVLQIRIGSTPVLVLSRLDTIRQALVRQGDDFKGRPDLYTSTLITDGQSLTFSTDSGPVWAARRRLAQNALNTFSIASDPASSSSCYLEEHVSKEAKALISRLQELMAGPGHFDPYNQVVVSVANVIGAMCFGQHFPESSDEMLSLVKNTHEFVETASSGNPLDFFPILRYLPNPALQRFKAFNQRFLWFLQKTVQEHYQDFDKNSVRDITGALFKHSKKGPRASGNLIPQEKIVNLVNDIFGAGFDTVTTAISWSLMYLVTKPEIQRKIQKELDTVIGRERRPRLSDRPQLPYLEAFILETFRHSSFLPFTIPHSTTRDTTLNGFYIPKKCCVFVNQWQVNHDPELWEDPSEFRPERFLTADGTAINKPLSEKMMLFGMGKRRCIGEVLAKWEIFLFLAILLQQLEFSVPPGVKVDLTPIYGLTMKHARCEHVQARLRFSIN
Kind of assay: CYP1A2 inhibition (fluorescent substrate CEC). Type of assay: in vitro ADME. The following applies: read-out: Cyp IC50 1A2. A digest of the protocol: as §1

For a further assay, the target named is T3, BCR-NTRK1 BaF3 cells (Homo sapiens, UniProt P04629).
T3 construct: fused on or other part: P11274 (Breakpoint cluster region protein)
T3 sequence (P04629 510-781): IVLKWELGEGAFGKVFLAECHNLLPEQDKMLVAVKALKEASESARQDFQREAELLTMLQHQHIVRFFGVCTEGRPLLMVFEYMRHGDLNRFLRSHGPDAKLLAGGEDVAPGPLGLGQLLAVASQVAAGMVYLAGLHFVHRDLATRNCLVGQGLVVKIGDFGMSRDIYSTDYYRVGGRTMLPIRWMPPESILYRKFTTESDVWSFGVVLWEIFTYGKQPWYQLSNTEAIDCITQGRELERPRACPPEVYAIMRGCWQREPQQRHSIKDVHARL
The assay can be described thus: BaF3 BCR-NTRK1 cell proliferation assay (ATPlite). As to conditions: read-out: Inhibition of Cell Proliferation IC50, BCR/BaF3 TrkA. In kind it is cell-based. The procedure, abridged: as §2

CYP2C19, sequence (P33261 whole entry): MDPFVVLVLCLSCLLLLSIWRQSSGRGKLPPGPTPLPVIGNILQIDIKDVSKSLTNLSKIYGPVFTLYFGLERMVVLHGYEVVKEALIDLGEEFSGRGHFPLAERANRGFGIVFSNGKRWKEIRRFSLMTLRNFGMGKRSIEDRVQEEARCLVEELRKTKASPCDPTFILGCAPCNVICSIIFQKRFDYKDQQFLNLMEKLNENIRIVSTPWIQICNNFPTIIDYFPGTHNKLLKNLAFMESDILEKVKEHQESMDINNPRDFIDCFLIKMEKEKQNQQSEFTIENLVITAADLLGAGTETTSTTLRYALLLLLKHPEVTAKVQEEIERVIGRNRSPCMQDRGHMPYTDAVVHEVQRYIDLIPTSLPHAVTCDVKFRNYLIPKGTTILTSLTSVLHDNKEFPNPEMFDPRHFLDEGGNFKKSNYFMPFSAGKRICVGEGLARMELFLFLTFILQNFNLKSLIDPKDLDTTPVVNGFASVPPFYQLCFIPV

For `Cc1cnc2[nH]cc(Cc3ccc(Nc4ccc(C)nc4)nc3F)c2c1` [Compound P-3041, [6-Fluoro-5-(5-methyl-1H-pyrrolo[2,3-b]pyridin-3-ylmethyl)-pyridin-2-yl]-(6-methyl-pyridin-3-yl)-amine], the IC50 on CYP2C19 is greater than 10 µM; on BCR-NTRK3 BaF3 cells it was less than 0.1 µM; at CYP1A2 it was greater than 10 µM; on BCR-NTRK1 BaF3 cells, less than 1 µM.
Turning to `Cc1cnc2[nH]cc(C(=O)c3ccc(Nc4ccc(C)nc4)nc3F)c2c1` [Compound P-3043, [2-Fluoro-6-(6-methyl-pyridin-3-ylamino)-pyridin-3-yl]-(5-methyl-1H-pyrrolo[2,3-b]pyridin-3-yl)-methanone], the IC50 was greater than 10 µM on CYP2C19, less than 0.1 µM at BCR-NTRK3 BaF3 cells, greater than 10 µM on CYP1A2 and less than 0.1 µM on BCR-NTRK1 BaF3 cells.
Regarding `Cc1ccc(Nc2ccc(C(=O)c3c[nH]c4ncc(Cl)cc34)c(F)n2)cn1` [Compound P-3044, (5-Chloro-1H-pyrrolo[2,3-b]pyridin-3-yl)-[2-fluoro-6-(6-methyl-pyridin-3-ylamino)-pyridin-3-yl]-methanone], the IC50 was greater than 10 µM on CYP2C19, less than 0.1 µM at BCR-NTRK3 BaF3 cells, greater than 10 µM at CYP1A2 and less than 1 µM on BCR-NTRK1 BaF3 cells.
`O=C(c1ccc(Nc2ccc(C3CC3)nc2)nc1F)c1c[nH]c2ncccc12` [Compound P-3052, [6-(6-Cyclopropyl-pyridin-3-ylamino)-2-fluoro-pyridin-3-yl]-(1H-pyrrolo[2,3-b]pyridin-3-yl)-methanone]: the IC50 at CYP2C19 was 5 to 10 µM; at BCR-NTRK3 BaF3 cells, less than 0.01 µM; at CYP1A2, greater than 10 µM; at BCR-NTRK1 BaF3 cells, less than 0.1 µM.
With `Fc1nc(Nc2ccc(C3CC3)nc2)ccc1Cc1c[nH]c2ncccc12` [Compound P-3053, (6-Cyclopropyl-pyridin-3-yl)-[6-fluoro-5-(1H-pyrrolo[2,3-b]pyridin-3-ylmethyl)-pyridin-2-yl]-amine], the IC50 is greater than 10 µM at CYP2C19, less than 0.01 µM at BCR-NTRK3 BaF3 cells, greater than 10 µM at CYP1A2 and less than 0.1 µM on BCR-NTRK1 BaF3 cells.
Turning to `COc1ccc(Nc2ccc(Cc3c[nH]c4ncnc(OC)c34)c(F)n2)cn1` [Compound P-4001, [6-Fluoro-5-(4-methoxy-7H-pyrrolo[2,3-d]pyrimidin-5-ylmethyl)-pyridin-2-yl]-(6-methoxy-pyridin-3-yl)-amine], the IC50 was less than 5 µM on CYP2C19, less than 0.01 µM on BCR-NTRK3 BaF3 cells, greater than 10 µM at CYP1A2 and less than 0.1 µM on BCR-NTRK1 BaF3 cells.
For `COc1ccc(Nc2ccc(Cc3c[nH]c4ncnc(C)c34)c(F)n2)cn1` [Compound P-4002, [6-Fluoro-5-(4-methyl-7H-pyrrolo[2,3-d]pyrimidin-5-ylmethyl)-pyridin-2-yl]-(6-methoxy-pyridin-3-yl)-amine] the same measures were greater than 10 µM, less than 0.1 µM, greater than 10 µM and less than 1 µM.
For `COc1ncnc2[nH]cc(Cc3ccc(Nc4ccc(Cl)nc4)nc3F)c12` [Compound P-4003, (6-Chloro-pyridin-3-yl)-[6-fluoro-5-(4-methoxy-7H-pyrrolo[2,3-d]pyrimidin-5-ylmethyl)-pyridin-2-yl]-amine] the same measures were greater than 10 µM, less than 0.1 µM, greater than 10 µM and less than 1 µM.
For `COc1ncnc2[nH]cc(Cc3ccc(Nc4ccc(C5CC5)nc4)nc3F)c12` [Compound P-4004, (6-Cyclopropyl-pyridin-3-yl)-[6-fluoro-5-(4-methoxy-7H-pyrrolo[2,3-d]pyrimidin-5-ylmethyl)-pyridin-2-yl]-amine] the same measures were greater than 10 µM, less than 0.01 µM, greater than 10 µM and less than 0.01 µM.
As for `CCOc1ccc(Nc2ccc(Cc3c[nH]c4ncnc(OC)c34)c(F)n2)cn1` [Compound P-4005, (6-Ethoxy-pyridin-3-yl)-[6-fluoro-5-(4-methoxy-7H-pyrrolo[2,3-d]pyrimidin-5-ylmethyl)-pyridin-2-yl]-amine], the IC50 was greater than 10 µM at CYP2C19, less than 0.01 µM at BCR-NTRK3 BaF3 cells, greater than 10 µM on CYP1A2 and less than 0.1 µM on BCR-NTRK1 BaF3 cells.
Consider `CCOc1ccc(Nc2ccc(Cc3c[nH]c4ncnc(C)c34)c(F)n2)cn1` [Compound P-4006, (6-Ethoxy-pyridin-3-yl)-[6-fluoro-5-(4-methyl-7H-pyrrolo[2,3-d]pyrimidin-5-ylmethyl)-pyridin-2-yl]-amine], for which the IC50 is greater than 10 µM at CYP2C19, less than 0.01 µM on BCR-NTRK3 BaF3 cells, greater than 10 µM at CYP1A2 and less than 0.1 µM on BCR-NTRK1 BaF3 cells.
On to `CCc1ccc(Nc2ccc(Cc3c[nH]c4ncnc(OC)c34)c(F)n2)cn1` [Compound P-4007, (6-Ethyl-pyridin-3-yl)-[6-fluoro-5-(4-methoxy-7H-pyrrolo[2,3-d]pyrimidin-5-ylmethyl)-pyridin-2-yl]-amine], for which the IC50 was greater than 10 µM at CYP2C19, less than 0.01 µM on BCR-NTRK3 BaF3 cells, greater than 10 µM on CYP1A2 and less than 0.01 µM at BCR-NTRK1 BaF3 cells.
Consider `CCOc1ccc(Nc2ccc(Cc3c[nH]c4ncnc(OCCOC)c34)c(F)n2)cn1` [Compound P-4008, (6-Ethoxy-pyridin-3-yl)-{6-fluoro-5-[4-(2-methoxy-ethoxy)-7H-pyrrolo[2,3-d]pyrimidin-5-ylmethyl]-pyridin-2-yl}-amine], for which the IC50 at CYP2C19 was greater than 10 µM; at BCR-NTRK3 BaF3 cells, less than 0.1 µM; at CYP1A2, greater than 10 µM; on BCR-NTRK1 BaF3 cells it was less than 0.1 µM.
`CCc1ccc(Nc2ccc(Cc3c[nH]c4ncnc(C)c34)c(F)n2)cn1` [Compound P-4009, (6-Ethyl-pyridin-3-yl)-[6-fluoro-5-(4-methyl-7H-pyrrolo[2,3-d]pyrimidin-5-ylmethyl)-pyridin-2-yl]-amine]: the IC50 on CYP2C19 is 5 to 10 µM; on BCR-NTRK3 BaF3 cells, less than 0.01 µM; on CYP1A2 it was greater than 10 µM; on BCR-NTRK1 BaF3 cells it was less than 0.1 µM.
For `COc1ncnc2[nH]cc(Cc3ccc(Nc4ccc(C)nc4)nc3F)c12` [Compound P-4010, [6-Fluoro-5-(4-methoxy-7H-pyrrolo[2,3-d]pyrimidin-5-ylmethyl)-pyridin-2-yl]-(6-methyl-pyridin-3-yl)-amine] the same measures were greater than 10 µM, less than 0.1 µM, greater than 10 µM and less than 1 µM.
For `CCn1cc(Nc2ccc(Cc3c[nH]c4ncnc(OC)c34)c(F)n2)cn1` [Compound P-4011, (1-Ethyl-1H-pyrazol-4-yl)-[6-fluoro-5-(4-methoxy-7H-pyrrolo[2,3-d]pyrimidin-5-ylmethyl)-pyridin-2-yl]-amine] the same measures were greater than 10 µM, less than 1 µM, greater than 10 µM and less than 1 µM.
Consider `CCOc1ncnc2[nH]cc(Cc3ccc(Nc4cnn(CC)c4)nc3F)c12` [Compound P-4012, [5-(4-Ethoxy-7H-pyrrolo[2,3-d]pyrimidin-5-ylmethyl)-6-fluoro-pyridin-2-yl]-(1-ethyl-1H-pyrazol-4-yl)-amine], for which the IC50 on CYP2C19 was greater than 10 µM; on BCR-NTRK3 BaF3 cells, less than 0.1 µM; at CYP1A2 it was greater than 10 µM; at BCR-NTRK1 BaF3 cells it was less than 1 µM.
Turning to `CCn1cc(Nc2ccc(Cc3c[nH]c4ncnc(C)c34)c(F)n2)cn1` [Compound P-4013, (1-Ethyl-1H-pyrazol-4-yl)-[6-fluoro-5-(4-methyl-7H-pyrrolo[2,3-d]pyrimidin-5-ylmethyl)-pyridin-2-yl]-amine], the IC50 at CYP2C19 is greater than 10 µM; at BCR-NTRK3 BaF3 cells it was less than 1 µM; at CYP1A2, greater than 10 µM; on BCR-NTRK1 BaF3 cells, less than 1 µM.
In the case of `CCn1cc(Nc2ccc(Cc3c[nH]c4ncnc(OCCOC)c34)c(F)n2)cn1` [Compound P-4014, (1-Ethyl-1H-pyrazol-4-yl)-{6-fluoro-5-[4-(2-methoxy-ethoxy)-7H-pyrrolo[2,3-d]pyrimidin-5-ylmethyl]-pyridin-2-yl}-amine], the IC50 is greater than 10 µM on CYP2C19, less than 1 µM at BCR-NTRK3 BaF3 cells, greater than 10 µM on CYP1A2 and less than 1 µM at BCR-NTRK1 BaF3 cells.
Take `COCCOc1ncnc2[nH]cc(Cc3ccc(Nc4ccc(C)nc4)nc3F)c12` [Compound P-4015, {6-Fluoro-5-[4-(2-methoxy-ethoxy)-7H-pyrrolo[2,3-d]pyrimidin-5-ylmethyl]-pyridin-2-yl}-(6-methyl-pyridin-3-yl)-amine]: the IC50 on CYP2C19 was greater than 10 µM; on BCR-NTRK3 BaF3 cells, less than 0.1 µM; at CYP1A2, greater than 10 µM; at BCR-NTRK1 BaF3 cells, less than 1 µM.
